Several values for one entry are separate records, joined by “and”; a condition that tells them apart may be missing. Equal entries are not always repeated. Where two headings read alike, the source gives them in different places.
Legend:
[1] = target: T1, PRDM9 (amino acids: 195–415) (Homo sapiens, UniProt Q9NQV7); experiment: PRDM9 methyltransferase activity assay (3H-SAM scintillation proximity assay); type: biochemical; conditions: for activity at 100 µM: 100 µM compound
T1 construct: PRDM9 (amino acids: 195–415)
T1 sequence (Q9NQV7 195-415): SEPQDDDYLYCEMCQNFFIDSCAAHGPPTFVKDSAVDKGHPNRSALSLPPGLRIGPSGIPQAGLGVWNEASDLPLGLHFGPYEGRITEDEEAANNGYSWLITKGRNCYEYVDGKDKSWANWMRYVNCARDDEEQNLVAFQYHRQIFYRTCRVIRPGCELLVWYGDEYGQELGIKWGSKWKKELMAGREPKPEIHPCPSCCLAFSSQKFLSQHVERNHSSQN
Protocol: Methyltransferase activity assays for PRDM9 (amino acids: 195–415) were performed by monitoring the incorporation of tritium-labeled methyl group from ^3H-SAM to H3 (1–25) peptide using scintillation proximity assay (SPA). The enzymatic reactions were performed at 23 °C with 30 min incubation in 20 mM Tris-HCl (pH 7.5), 5 mM DTT, 0.01% Triton X-100 and 1% DMSO containing 71 μM of SAM (5 μM of ^3H-SAM), 4 μM of biotinylated H3 (1–25) peptide and 5 nM of PRDM9. For PRDM7, reactions were performed at 23 °C with 90 min incubation in 20 mM BTP pH 9.0, 5 mM DTT, 0.01% Triton X-100 and 1% DMSO containing 900 μM of SAM (5 μM of ^3H-SAM), 4 μM of biotinylated H3 (1–25) peptide and 100 nM of enzyme. […] To stop the reactions, 10 μL of 7.5 M guanidine hydrochloride was added to 10 μL of reaction mixture, followed by 60 μL of buffer (20 mM Tris, pH 8.0), mixed, and transferred to a 384-well streptavidin coated Flash-plate. After mixing, the mixtures in Flash-plate were incubated for 2 h, and the CPM counts were measured using TopCount plate reader. All enzymatic reactions were performed in triplicate, and IC50 values were determined by fitting the data to Four Parameter Logistic equation using the GraphPad Prism software.

CAL851 = experiment: CelltiterGlo viability cell assay; type: cell-based; conditions: up to 30 μM; days 3 and 6; Prdm9 expressing line
Protocol: (§1) Supplementary Figure 13. […] Viability of
(§2) (a) Multiple Myeloma lines and (b) Breast Cancer cell lines following 3 or 6 days treatment with […]
(§3) manufacturer’s instructions as described in the Supplementary methods. Data are normalized to DMSO control. N=3 biological replicates, +/- SEM. Source data are provided as a Source Data […]
(§4) CelltiterGlo viability cell assay
(§5) Cells were seeded in 96 well plates at per-well densities of 10000 (MDA-MB436, ATCC-HTB130), 15000 (8226, kind gift from Rodger Tiedemann, Princess Margaret Cancer Centre), […]
(§6) kind gift from Rodger Tiedemann, Princess Margaret Cancer Centre) and 50000 (CAL851, kind gift from Mathieu Lupien, Princess Margaret Cancer Centre) and were treated at increasing concentrations of compounds ranging from 0.01 μM to 30 μM and assessed for proliferation using CelltiterGlo (Promega) following manufacturer’s instructions, as readout on days 3 and 6 as indicated. All cell lines were mycoplasma negative, as determined by MycoAlert™ Mycoplasma Detection Kit(Lonza). […]

RPMI-8226 = experiment: CelltiterGlo viability cell assay; type: cell-based; conditions: up to 30 μM; days 3 and 6; matched control line
Protocol: as §1, §2, §3, §4, §5, §6

SKMM2 = experiment: CelltiterGlo viability cell assay; type: cell-based; conditions: up to 30 μM; days 3 and 6; Prdm9 expressing line
Protocol: as §1, §2, §3, §4, §5, §6

## COc1cc(OC)cc(-c2noc(N3CCN(C)C4(CCN(c5ccccc5)CC4)C3)n2)c1 [MRK-740-NC]
[1]
  PRDM9 inhibition (in words): inactive control compound
[1]; 0.00610352 µM compound, 0.00610352 µM
  PRDM9-Activity %, single experiments: 111.779% and 111.39%
[1]; 0.00610352 µM compound, n=6 MRK-740, n=3 MRK-740-NC, read-out: PRDM9-Activity %, Average
  activity at 0.00610352 µM: 110%
[1]; 0.00610352 µM compound, read-out: PRDM9-Activity %, single experiments
  activity at 0.00610352 µM: 108%
[1]; 0.012207 µM compound, 0.012207 µM
  PRDM9-Activity %, single experiments: 116.346% and 113.283%
[1]; 0.012207 µM compound, n=6 MRK-740, n=3 MRK-740-NC, read-out: PRDM9-Activity %, Average
  activity at 0.012207 µM: 115%
[1]; 0.012207 µM compound, read-out: PRDM9-Activity %, single experiments
  activity at 0.012207 µM: 116%
[1]; 0.0244141 µM compound, 0.0244141 µM
  PRDM9-Activity %, single experiments: 104.873% and 111.39%
[1]; 0.0244141 µM compound, n=6 MRK-740, n=3 MRK-740-NC, read-out: PRDM9-Activity %, Average
  activity at 0.0244141 µM: 111%
[1]; 0.0244141 µM compound, read-out: PRDM9-Activity %, single experiments
  activity at 0.0244141 µM: 116%
[1]; 0.0488281 µM compound, 0.0488281 µM
  PRDM9-Activity %, single experiments: 125.258% and 118.268%
[1]; 0.0488281 µM compound, n=6 MRK-740, n=3 MRK-740-NC, read-out: PRDM9-Activity %, Average
  activity at 0.0488281 µM: 122%
[1]; 0.0488281 µM compound, read-out: PRDM9-Activity %, single experiments
  activity at 0.0488281 µM: 121%
[1]; 0.0976562 µM compound, 0.0976562 µM
  PRDM9-Activity %, single experiments: 107.407% and 111.807%
[1]; 0.0976562 µM compound, n=6 MRK-740, n=3 MRK-740-NC, read-out: PRDM9-Activity %, Average
  activity at 0.0976562 µM: 109%
[1]; 0.0976562 µM compound, read-out: PRDM9-Activity %, single experiments
  activity at 0.0976562 µM: 108%
[1]; 0.195312 µM compound, 0.195312 µM
  PRDM9-Activity %, single experiments: 118.212% and 116.151%
[1]; 0.195312 µM compound, n=6 MRK-740, n=3 MRK-740-NC, read-out: PRDM9-Activity %, Average
  activity at 0.195312 µM: 119%
[1]; 0.195312 µM compound, read-out: PRDM9-Activity %, single experiments
  activity at 0.195312 µM: 122%
[1]; 0.390625 µM compound, 0.390625 µM
  PRDM9-Activity %, single experiments: 107.574% and 115.149%
[1]; 0.390625 µM compound, n=6 MRK-740, n=3 MRK-740-NC, read-out: PRDM9-Activity %, Average
  activity at 0.390625 µM: 111%
[1]; 0.390625 µM compound, read-out: PRDM9-Activity %, single experiments
  activity at 0.390625 µM: 112%
[1]; 0.78125 µM compound, 0.78125 µM
  PRDM9-Activity %, single experiments: 116.708% and 121.749%
[1]; 0.78125 µM compound, n=6 MRK-740, n=3 MRK-740-NC, read-out: PRDM9-Activity %, Average
  activity at 0.78125 µM: 119%
[1]; 0.78125 µM compound, read-out: PRDM9-Activity %, single experiments
  activity at 0.78125 µM: 120%
[1]; 1.5625 µM compound, 1.5625 µM
  PRDM9-Activity %, single experiments: 114.731% and 115.595%
[1]; 1.5625 µM compound, n=6 MRK-740, n=3 MRK-740-NC, read-out: PRDM9-Activity %, Average
  activity at 1.5625 µM: 116%
[1]; 1.5625 µM compound, read-out: PRDM9-Activity %, single experiments
  activity at 1.5625 µM: 117%
[1]; 3.125 µM compound, 3.125 µM
  PRDM9-Activity %, single experiments: 124.004% and 125.898%
[1]; 3.125 µM compound, n=6 MRK-740, n=3 MRK-740-NC, read-out: PRDM9-Activity %, Average
  activity at 3.125 µM: 123%
[1]; 3.125 µM compound, read-out: PRDM9-Activity %, single experiments
  activity at 3.125 µM: 120%
[1]; 6.25 µM compound, 6.25 µM
  PRDM9-Activity %, single experiments: 105.486% and 104.623%
[1]; 6.25 µM compound, n=6 MRK-740, n=3 MRK-740-NC, read-out: PRDM9-Activity %, Average
  activity at 6.25 µM: 105%
[1]; 6.25 µM compound, read-out: PRDM9-Activity %, single experiments
  activity at 6.25 µM: 105%
[1]; 12.5 µM compound, 12.5 µM
  PRDM9-Activity %, single experiments: 112.476% and 115.762%
[1]; 12.5 µM compound, n=6 MRK-740, n=3 MRK-740-NC, read-out: PRDM9-Activity %, Average
  activity at 12.5 µM: 114%
[1]; 12.5 µM compound, read-out: PRDM9-Activity %, single experiments
  activity at 12.5 µM: 114%
[1]; 25 µM compound, 25 µM
  PRDM9-Activity %, single experiments: 98.6355% and 87.9699%
[1]; 25 µM compound, n=6 MRK-740, n=3 MRK-740-NC, read-out: PRDM9-Activity %, Average
  activity at 25 µM: 94.3%
[1]; 25 µM compound, read-out: PRDM9-Activity %, single experiments
  activity at 25 µM: 96.2%
[1]; 50 µM compound, 50 µM
  PRDM9-Activity %, single experiments: 103.397% and 100.975%
[1]; 50 µM compound, n=6 MRK-740, n=3 MRK-740-NC, read-out: PRDM9-Activity %, Average
  activity at 50 µM: 102%
[1]; 50 µM compound, read-out: PRDM9-Activity %, single experiments
  activity at 50 µM: 101%
[1]; n=3, read-out: PRDM9-Activity %, Average
  activity at 100 µM: 80.5%
[1]; read-out: PRDM9-Activity %, single experiments
  activity at 100 µM: 82.7%
CAL851
  Effect on proliferation (in words): did not have any significant effect
RPMI-8226
  Effect on proliferation (in words): did not have any significant effect
SKMM2
  Effect on proliferation (in words): did not have any significant effect

Reference: paper PMC6917776, “Discovery of a chemical probe for PRDM9” (Nature Communications, 2019)
